Tested on: MV-4-11 cells
Assay: Gene expression microarray analysis (Affymetrix PrimeView) and GSEA
Assay type: cell-based, human
Set-up: RFU PODN (11730768_x_at) / Fold change /veh PODN (11730768_x_at) / RFU LINC00158 (11744669_a_at) / Fold change /veh LINC00158 (11744669_a_at) / RFU DUSP10 (11751237_a_at) / Fold change /veh DUSP10 (11751237_a_at) / RFU ID3 (11757404_x_at) / Fold change /veh ID3 (11757404_x_at) / RFU PLEKHG5 (11737974_s_at) / Fold change /veh PLEKHG5 (11737974_s_at) / RFU LRRC4B (11730491_at) / Fold change /veh LRRC4B (11730491_at) / RFU GIMAP4 (11747438_a_at) / Fold change /veh GIMAP4 (11747438_a_at) / RFU KRT8 (11758183_x_at) / Fold change /veh KRT8 (11758183_x_at) / RFU CNN1 (11734310_a_at) / Fold change /veh CNN1 (11734310_a_at) / RFU VPS37D (11726825_at) / Fold change /veh VPS37D (11726825_at) / RFU C10orf10 (11716522_x_at) / Fold change /veh C10orf10 (11716522_x_at) / RFU KIR2DL2 /// KIR2DL4 /// KIR2DL5A /// KIR2DL5B /// KIR2DS1 /// KIR2DS2 /// KIR2DS3 /// KIR2DS4 /// KIR3DL3 /// KIR3DL3 /// KIR3DS1 (11738374_at) / Fold change /veh KIR2DL2 /// KIR2DL4 /// KIR2DL5A /// KIR2DL5B /// KIR2DS1 /// KIR2DS2 /// KIR2DS3 /// KIR2DS4 /// KIR3DL3 /// KIR3DL3 /// KIR3DS1 (11738374_at) / RFU C1QL1 (11718748_at) / Fold change /veh C1QL1 (11718748_at) / RFU TMPRSS4 (11747572_a_at) / Fold change /veh TMPRSS4 (11747572_a_at) / RFU HAMP (11756126_x_at) / Fold change /veh HAMP (11756126_x_at) / RFU RNFT2 (11725882_a_at) / Fold change /veh RNFT2 (11725882_a_at) / RFU NR4A2 (11747474_a_at) / Fold change /veh NR4A2 (11747474_a_at) / RFU ABCC12 (11746883_a_at) / Fold change /veh ABCC12 (11746883_a_at) / RFU TMEM136 (11760407_x_at) / Fold change /veh TMEM136 (11760407_x_at) / RFU CLDN22 /// WWC2 (11732394_at) / Fold change /veh CLDN22 /// WWC2 (11732394_at) / RFU HLA-DPB1 (11760878_x_at) / Fold change /veh HLA-DPB1 (11760878_x_at) / RFU SPINT1 (11716480_a_at) / Fold change /veh SPINT1 (11716480_a_at) / RFU GAP43 (11754022_s_at) / Fold change /veh GAP43 (11754022_s_at) / RFU A4GNT (11735810_at) / Fold change /veh A4GNT (11735810_at) / RFU PRB3 (11715151_x_at) / Fold change /veh PRB3 (11715151_x_at) / RFU TUBB4B (11761932_at) / Fold change /veh TUBB4B (11761932_at) / RFU CAPN14 (11732068_a_at) / Fold change /veh CAPN14 (11732068_a_at) / RFU TMCC2 (11721928_a_at) / Fold change /veh TMCC2 (11721928_a_at) / RFU IRGQ (11745062_a_at) / Fold change /veh IRGQ (11745062_a_at) / RFU FAM174B (11720279_a_at) / Fold change /veh FAM174B (11720279_a_at) / RFU TMPRSS4 (11748680_a_at) / Fold change /veh TMPRSS4 (11748680_a_at) / RFU FAM212B (11763350_a_at) / Fold change /veh FAM212B (11763350_a_at) / RFU PLEKHG5 (11743358_a_at) / Fold change /veh PLEKHG5 (11743358_a_at) / RFU ZSCAN30 (11745921_a_at) / Fold change /veh ZSCAN30 (11745921_a_at) / RFU CMKLR1 (11741424_a_at) / Fold change /veh CMKLR1 (11741424_a_at) / RFU LOC101060620 /// MAPK8IP1 (11723275_at) / Fold change /veh LOC101060620 /// MAPK8IP1 (11723275_at) / RFU SPTSSB (11747773_x_at) / Fold change /veh SPTSSB (11747773_x_at) / RFU PRSS12 (11739890_at) / Fold change /veh PRSS12 (11739890_at) / RFU BIN1 (11741810_x_at) / Fold change /veh BIN1 (11741810_x_at) / RFU WNT11 (11732464_a_at) / Fold change /veh WNT11 (11732464_a_at) / RFU C10orf10 (11716521_a_at) / Fold change /veh C10orf10 (11716521_a_at) / RFU C5orf56 (11738089_at) / Fold change /veh C5orf56 (11738089_at) / RFU CYB561 (11721691_x_at) / Fold change /veh CYB561 (11721691_x_at) / RFU ANKRD19P (11752326_a_at) / Fold change /veh ANKRD19P (11752326_a_at) / RFU OR2T12 /// OR2T33 /// OR2T8 (11738714_s_at) / Fold change /veh OR2T12 /// OR2T33 /// OR2T8 (11738714_s_at) / RFU VCAN (11748164_a_at) / Fold change /veh VCAN (11748164_a_at) / RFU JSRP1 (11732532_at) / Fold change /veh JSRP1 (11732532_at) / RFU KRTAP10-11 (11738290_x_at) / Fold change /veh KRTAP10-11 (11738290_x_at) / RFU MYO3A (11730013_a_at) / Fold change /veh MYO3A (11730013_a_at) / RFU EBF3 (11725865_a_at) / Fold change /veh EBF3 (11725865_a_at) / RFU CAMK2N1 (11719241_x_at) / Fold change /veh CAMK2N1 (11719241_x_at) / RFU C5orf56 (11738088_a_at) / Fold change /veh C5orf56 (11738088_a_at) / RFU OLFML3 (11715873_a_at) / Fold change /veh OLFML3 (11715873_a_at) / RFU LOC100653217 /// NTM (11731650_a_at) / Fold change /veh LOC100653217 /// NTM (11731650_a_at) / RFU MAPK11 (11762145_a_at) / Fold change /veh MAPK11 (11762145_a_at) / RFU FIZ1 (11724087_x_at) / Fold change /veh FIZ1 (11724087_x_at) / RFU OASL (11726364_x_at) / Fold change /veh OASL (11726364_x_at) / RFU SOX15 (11748057_x_at) / Fold change /veh SOX15 (11748057_x_at) / RFU CD79A (11719716_a_at) / Fold change /veh CD79A (11719716_a_at) / RFU HIST1H1D (11736915_at) / Fold change /veh HIST1H1D (11736915_at) / RFU CASKIN2 (11723855_a_at) / Fold change /veh CASKIN2 (11723855_a_at) / RFU LOC730098 (11760151_x_at) / Fold change /veh LOC730098 (11760151_x_at) / RFU OR4N2 (11742367_at) / Fold change /veh OR4N2 (11742367_at) / RFU PRRT2 (11749266_a_at) / Fold change /veh PRRT2 (11749266_a_at) / RFU SNX32 (11753110_a_at) / Fold change /veh SNX32 (11753110_a_at) / RFU CDHR5 (11726645_a_at) / Fold change /veh CDHR5 (11726645_a_at) / RFU RCAN1 (11760418_a_at) / Fold change /veh RCAN1 (11760418_a_at) / RFU FAM167A (11723789_a_at) / Fold change /veh FAM167A (11723789_a_at) / RFU FAM26E (11764081_at) / Fold change /veh FAM26E (11764081_at) / RFU ISYNA1 (11749810_s_at) / Fold change /veh ISYNA1 (11749810_s_at) / RFU ACY1 (11761880_at) / Fold change /veh ACY1 (11761880_at) / RFU 11764098_at / Fold change /veh 11764098_at / RFU SAMD14 (11745864_x_at) / Fold change /veh SAMD14 (11745864_x_at) / RFU NPB (11741838_a_at) / Fold change /veh NPB (11741838_a_at) / RFU TMPRSS6 (11731388_a_at) / Fold change /veh TMPRSS6 (11731388_a_at) / RFU KRTAP10-2 (11738614_at) / Fold change /veh KRTAP10-2 (11738614_at) / RFU ARHGAP8 /// PRR5-ARHGAP8 (11727945_x_at) / Fold change /veh ARHGAP8 /// PRR5-ARHGAP8 (11727945_x_at) / RFU KRTAP5-7 /// NADSYN1 (11734609_at) / Fold change /veh KRTAP5-7 /// NADSYN1 (11734609_at) / RFU RASL12 (11751679_a_at) / Fold change /veh RASL12 (11751679_a_at) / RFU CDKN2B (11736163_a_at) / Fold change /veh CDKN2B (11736163_a_at) / RFU PRF1 (11729649_at) / Fold change /veh PRF1 (11729649_at) / RFU, ZNF638 /// ZNF638-IT1 / Fold change vs veh, ZNF638 /// ZNF638-IT1 / RFU, PANK3 / Fold change vs veh, PANK3 / RFU, SH3YL1 / Fold change vs veh, SH3YL1 / RFU, ZEB2 / Fold change vs veh, ZEB2 / RFU, NRIP1 / Fold change vs veh, NRIP1 / RFU, PTTG1IP / Fold change vs veh, PTTG1IP / RFU, CAPN2 / Fold change vs veh, CAPN2 / RFU, MED14 / Fold change vs veh, MED14 / RFU, SNORA58 / Fold change vs veh, SNORA58 / RFU, C1orf63 / Fold change vs veh, C1orf63 / RFU, LRRFIP1 / Fold change vs veh, LRRFIP1 / RFU, NDUFAF7 / Fold change vs veh, NDUFAF7 / RFU, SLC12A2 / Fold change vs veh, SLC12A2 / RFU, IBTK / Fold change vs veh, IBTK / RFU, ESF1 / Fold change vs veh, ESF1 / Fold change vs veh, TMEM50B / RFU, TAOK1 / Fold change vs veh, TAOK1 / RFU, ACBD3 / Fold change vs veh, ACBD3 / RFU, TMA16 / Fold change vs veh, TMA16 / RFU, RWDD3 / Fold change vs veh, RWDD3 / RFU, BCAT1 / Fold change vs veh, BCAT1 / RFU, EDEM3 / Fold change vs veh, EDEM3 / RFU, TMEM33 / Fold change vs veh, TMEM33 / RFU, WDR75 / Fold change vs veh, WDR75 / RFU, AHCTF1 / Fold change vs veh, AHCTF1 / RFU, TFRC / Fold change vs veh, TFRC / RFU, ZDHHC17 / Fold change vs veh, ZDHHC17 / RFU, NOM1 / Fold change vs veh, NOM1 / RFU, ARL8B / Fold change vs veh, ARL8B / RFU, ZBTB11 / Fold change vs veh, ZBTB11 / RFU, TAMM41 / Fold change vs veh, TAMM41 / RFU, KIAA1704 /// LOC100996395 / Fold change vs veh, KIAA1704 /// LOC100996395 / RFU, ING1 / Fold change vs veh, ING1 / RFU, TRMT61B / Fold change vs veh, TRMT61B / RFU, FUBP3 / Fold change vs veh, FUBP3 / RFU, TP53 / Fold change vs veh, TP53 / RFU, TNKS2 / Fold change vs veh, TNKS2 / RFU, ZFP14 / Fold change vs veh, ZFP14 / RFU, ACTR2 / Fold change vs veh, ACTR2 / RFU, PPP3R1 / Fold change vs veh, PPP3R1 / RFU, PIK3R1 / Fold change vs veh, PIK3R1 / RFU, HNRNPA1 / Fold change vs veh, HNRNPA1 / RFU, RNF170 / Fold change vs veh, RNF170 / RFU, ZNF28 / Fold change vs veh, ZNF28 / RFU, RNGTT / Fold change vs veh, RNGTT / RFU, OGT / Fold change vs veh, OGT / RFU, BRD1 / Fold change vs veh, BRD1 / RFU, MARS / Fold change vs veh, MARS / RFU, ZNF655 / Fold change vs veh, ZNF655 / RFU, FAHD1 / Fold change vs veh, FAHD1 / RFU, BDP1 / Fold change vs veh, BDP1 / RFU, LRRCC1 / Fold change vs veh, LRRCC1 / RFU, ARID1A / Fold change vs veh, ARID1A / RFU, ZNF146 / Fold change vs veh, ZNF146 / RFU, ZNF330 / Fold change vs veh, ZNF330 / RFU, GPN3 / Fold change vs veh, GPN3 / RFU, C9orf123 / Fold change vs veh, C9orf123 / RFU, N4BP2L2 / Fold change vs veh, N4BP2L2 / RFU, ARFIP1 / Fold change vs veh, ARFIP1 / RFU, FAM179B / Fold change vs veh, FAM179B / RFU, BCL10 / Fold change vs veh, BCL10 / RFU, UHRF1BP1L / Fold change vs veh, UHRF1BP1L / RFU, BET1 / Fold change vs veh, BET1 / RFU, CNOT2 / Fold change vs veh, CNOT2 / RFU, ZNF268 / Fold change vs veh, ZNF268 / Fold change vs veh, ZNF507 / RFU, DGCR2 / Fold change vs veh, DGCR2 / RFU, WDSUB1 / Fold change vs veh, WDSUB1 / Fold change vs veh, HSP90B1 /// MIR3652 / RFU, ADSS / Fold change vs veh, ADSS / RFU, GK / Fold change vs veh, GK / RFU, ZNF148 / Fold change vs veh, ZNF148 / RFU, TAF9 / Fold change vs veh, TAF9 / RFU, SLC1A5 / Fold change vs veh, SLC1A5 / RFU, SLMO2 / Fold change vs veh, SLMO2 / RFU, ABCC4 / Fold change vs veh, ABCC4 / RFU, LOC101060439 /// RAP1B / Fold change vs veh, LOC101060439 /// RAP1B / RFU, RFX7 / Fold change vs veh, RFX7 / RFU, GTPBP10 / Fold change vs veh, GTPBP10 / RFU, CNEP1R1 / Fold change vs veh, CNEP1R1 / RFU, BIVM-ERCC5 /// ERCC5 / Fold change vs veh, BIVM-ERCC5 /// ERCC5 / RFU, ILF3 / Fold change vs veh, ILF3 / RFU 11762660_at / Fold change /veh 11762660_at / RFU VCAN (11757783_s_at) / Fold change /veh VCAN (11757783_s_at) / RFU DDX43 (11728927_at) / Fold change /veh DDX43 (11728927_at) / RFU KRT8 (11758188_x_at) / Fold change /veh KRT8 (11758188_x_at) / RFU NKD1 (11759106_at) / Fold change /veh NKD1 (11759106_at) / RFU SRD5A1 (11742802_a_at) / Fold change /veh SRD5A1 (11742802_a_at) / RFU TPSAB1 /// TPSB2 (11721975_s_at) / Fold change /veh TPSAB1 /// TPSB2 (11721975_s_at) / RFU GSTM3 (11746129_a_at) / Fold change /veh GSTM3 (11746129_a_at) / RFU IL23R (11737362_x_at) / Fold change /veh IL23R (11737362_x_at) / RFU TMEM51 (11727254_a_at) / Fold change /veh TMEM51 (11727254_a_at) / RFU PIWIL2 (11732686_x_at) / Fold change /veh PIWIL2 (11732686_x_at) / RFU ORM1 (11744905_x_at) / Fold change /veh ORM1 (11744905_x_at) / RFU CCDC152 (11743942_at) / Fold change /veh CCDC152 (11743942_at) / RFU ECM1 (11717891_a_at) / Fold change /veh ECM1 (11717891_a_at) / RFU IL23R (11748794_a_at) / Fold change /veh IL23R (11748794_a_at) / RFU TNFAIP8L3 (11732012_x_at) / Fold change /veh TNFAIP8L3 (11732012_x_at) / RFU MBOAT4 (11741988_at) / Fold change /veh MBOAT4 (11741988_at) / RFU 11764193_at / Fold change /veh 11764193_at / RFU TMEM53 (11763286_at) / Fold change /veh TMEM53 (11763286_at) / RFU MAGEB2 (11727129_at) / Fold change /veh MAGEB2 (11727129_at) / RFU TMEM200A (11744735_a_at) / Fold change /veh TMEM200A (11744735_a_at) / RFU CCDC152 (11751479_a_at) / Fold change /veh CCDC152 (11751479_a_at) / RFU FAM211A (11726209_a_at) / Fold change /veh FAM211A (11726209_a_at) / RFU RGS16 (11746705_a_at) / Fold change /veh RGS16 (11746705_a_at) / RFU VCAN (11755009_s_at) / Fold change /veh VCAN (11755009_s_at) / RFU RHOB (11743442_s_at) / Fold change /veh RHOB (11743442_s_at) / RFU RGS16 (11720943_a_at) / Fold change /veh RGS16 (11720943_a_at) / RFU RGS16 (11720944_at) / Fold change /veh RGS16 (11720944_at) / RFU, VPS4B / Fold change vs veh, VPS4B / RFU, CREB1 / Fold change vs veh, CREB1 / RFU, DNAJC13 / Fold change vs veh, DNAJC13 / RFU, GNAQ / Fold change vs veh, GNAQ / RFU, CDK5R1 / Fold change vs veh, CDK5R1 / RFU, ZRANB3 / Fold change vs veh, ZRANB3 / RFU, CUL4A / Fold change vs veh, CUL4A / RFU, CCNY / Fold change vs veh, CCNY / RFU, UFL1 / Fold change vs veh, UFL1 / RFU, COG3 / Fold change vs veh, COG3 / RFU, DIAPH2 / Fold change vs veh, DIAPH2 / RFU, SKA2 / Fold change vs veh, SKA2 / RFU, AFF3 / Fold change vs veh, AFF3 / RFU, LMF1 / Fold change vs veh, LMF1 / RFU, IPO11 / Fold change vs veh, IPO11 / RFU, DFFB / Fold change vs veh, DFFB / RFU, FOXP1 / Fold change vs veh, FOXP1 / RFU, CARD8 / Fold change vs veh, CARD8 / RFU, STRN3 / Fold change vs veh, STRN3 / RFU, ADK / Fold change vs veh, ADK / RFU, RASSF2 / Fold change vs veh, RASSF2 / RFU, WIPF1 / Fold change vs veh, WIPF1 / RFU, LARP1B / Fold change vs veh, LARP1B / RFU, RASA1 / Fold change vs veh, RASA1 / RFU, RB1 / Fold change vs veh, RB1 / RFU, PPFIA1 / Fold change vs veh, PPFIA1 / RFU, MAT2A / Fold change vs veh, MAT2A / RFU, CCT5 / Fold change vs veh, CCT5 / RFU, WDR92 / Fold change vs veh, WDR92 / RFU, CUX1 / Fold change vs veh, CUX1 / RFU, TTC7A / Fold change vs veh, TTC7A / RFU, TMEM135 / Fold change vs veh, TMEM135 / RFU, DEPTOR / Fold change vs veh, DEPTOR / RFU, CPM / Fold change vs veh, CPM / RFU, DNAJB6 / Fold change vs veh, DNAJB6 / RFU, CACNA2D3 / Fold change vs veh, CACNA2D3 / RFU, DTX4 / Fold change vs veh, DTX4 / RFU, TFCP2 / Fold change vs veh, TFCP2 / RFU, GMCL1 /// GMCL1P1 / Fold change vs veh, GMCL1 /// GMCL1P1 / RFU, AEBP2 / Fold change vs veh, AEBP2 / RFU, SNHG1 /// SNORD22 /// SNORD25 /// SNORD26 /// SNORD27 /// SNORD28 /// SNORD29 /// SNORD31 / Fold change vs veh, SNHG1 /// SNORD22 /// SNORD25 /// SNORD26 /// SNORD27 /// SNORD28 /// SNORD29 /// SNORD31 / Fold change (Aza/veh), C12orf56 (ProbeSet 11735607_a_at) / Fold change (ACY-1035/veh), C12orf56 (ProbeSet 11735607_a_at) / Fold change (Aza/veh), FGFR1OP (ProbeSet 11751329_s_at) / Fold change (ACY-1035/veh), FGFR1OP (ProbeSet 11751329_s_at) / Fold change (Aza/veh), VPS36 (ProbeSet 11739960_a_at) / Fold change (ACY-1035/veh), VPS36 (ProbeSet 11739960_a_at) / RFU SYPL1 (11715823_x_at) / Fold change /veh SYPL1 (11715823_x_at) / RFU IGFBP7 (11715501_s_at) / Fold change /veh IGFBP7 (11715501_s_at) / RFU REEP3 (11722064_at) / Fold change /veh REEP3 (11722064_at) / RFU IGLL1 (11728026_x_at) / Fold change /veh IGLL1 (11728026_x_at): dose or concentration left out as unconfirmed
Details: MV-4-11 cells, 48 hours

Q: With `Nc1ccc(-c2cccs2)cc1NC(=O)c1ccc2c(c1)cc(C1CC1)n2CCN1CCOCC1` [ACY-1035] as the compound, how does the “Fold change /veh PRB3 (11715151_x_at)” value read?
A: 0.95
